Consider nine compounds from PubChem BioAssay (NCI).

Assay in all cases: inhibition of tumour cell growth, NCI panel, 48 h
The subject of test [1] is HOP-62 NSCLC.
For test [2], the system named is TK-10 renal.
In test [3] the test system is MALME-3M melanoma.
For test [4], the system named is OVCAR-3 ovarian.
The subject of test [5] is SK-MEL-28 melanoma.
Test [6] concerns RPMI-8226 leukemia.
In test [7] the test system is NCI-H460 lung.
Test [8] deals with UO-31 renal.
In test [9] the test system is SF-295 CNS.
Test [10] concerns CAKI-1 renal.
The subject of test [11] is HCC-2998 colon.
For test [12], the system named is SK-MEL-5 melanoma.
Test [13] has as its system COLO 205 colon.
In test [14] the test system is SN12C renal.
In test [15] the test system is SK-OV-3 ovarian.
For test [16], the system named is A498 renal.

The structures appear in SMILES notation.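 Five compound concentrations were applied to cells in 96-well plates for 48 hours; endpoints were derived by simple linear interpolation of the resulting dose-response curve. Definition used: TGI = concentration required for complete inhibition of growth.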

In the case of `Nc1ccc2ncc(Nc3ccc(F)cc3)nc2c1`, the TGI in test [1], in test [2], in test [3], in test [4], in [5] and in [6] was more than 100 µM each time. Further, the TGI in test [7], in test [8], in test [9], in test [10], in [11] and in test [12] was more than 100 µM in each case. For the same compound, the TGI in test [13] and in test [14] was more than 100 µM throughout.
For `COc1cc(C(C#N)NNC(=O)Cc2ccccc2)cc(OC)c1OC` (configuration not stated), the TGI in [1], in test [2], in test [3], in test [4], in test [5] and in test [6] was more than 100 µM in each case. For the same compound, the TGI in [7], in test [8], in test [9], in test [15], in test [10] and in test [12] was more than 100 µM each time. In addition, the TGI in test [13] and in [14] was more than 100 µM in each case.
Take `Nc1ccc(C(=O)NN2C(=O)C(Cl)C2c2cc(Br)cc(Br)c2O)cc1` (configuration not stated): the TGI in test [1] was more than 100 µM; in test [2] it was more than 100 µM; in test [3], 97.9 µM; in test [5], more than 100 µM; in test [6] it was more than 100 µM; in test [7] it was more than 100 µM. For the same compound, the TGI in test [8] was 22.4 µM; in [9], more than 100 µM; in test [15], more than 100 µM; in test [10], 64 µM; in test [11], more than 100 µM; in test [12] it was 65.5 µM. The compound further came in with a TGI in test [13] of more than 100 µM.
On to `Cc1ccc(/C=C/C(=O)C(C)C)cc1`, for which the TGI was more than 100 µM in [2]; 83.1 µM in [4]; more than 100 µM in [5]; 72.7 µM in test [6]; more than 100 µM in [7]; more than 100 µM in [8]. The TGI in test [9], in test [15], in [11], in test [12], in test [16] and in test [13] was more than 100 µM throughout.
For `O=[N+]([O-])c1cc2c(cc1O)[nH]c1cccc([N+](=O)[O-])c12`, the TGI in [1], in test [2], in [3], in test [4], in test [5] and in test [6] was more than 100 µM each time. Besides, the TGI in [7], in test [8], in test [9], in [10], in [11] and in test [12] was more than 100 µM throughout. Also, the TGI in [13] and in test [14] was more than 100 µM in each case.
Take `COc1cc2c(cc1O)[C@H](C)C(c1ccccc1OC)O2` (some centres not stated): the TGI was more than 100 µM in test [2]; more than 100 µM in test [3]; more than 100 µM in [4]; more than 100 µM in [5]; 13.9 µM in [6]; 4.2 µM in [7]. Also, the TGI is 70.2 µM in test [8]; 22.9 µM in test [9]; more than 100 µM in [15]; 69.2 µM in [10]; 90 µM in test [11]; 19.7 µM in [12]. For the same compound, the TGI in test [16] came out at 56 µM; in test [13] it was 27 µM.
In the case of `Fc1ccc2c(c1)SC1Oc3ccccc3-c3c1c-2nn3-c1ccccc1` (configuration not stated), the TGI in test [1], in test [2], in test [3], in test [4], in [5] and in [6] was more than 100 µM each time. The TGI in [7], in [8], in test [9], in [15], in test [11] and in test [16] was more than 100 µM each time. Moreover, the TGI in test [13] is more than 100 µM.
For the compound `CN/C=C(/c1ccc(OC)cc1)C(O)c1ccc(OC)c(OC)c1` (configuration not stated), the TGI in test [1], in [2], in test [3], in test [4], in test [5] and in test [6] was more than 100 µM each time. For the same compound, the TGI in test [7], in test [8], in test [9], in test [15], in test [11] and in test [12] was more than 100 µM in each case. The TGI in test [16], in test [13] and in test [14] was more than 100 µM throughout.
For the compound `Cc1nc2nn(Cc3ccccc3)cc2c(=O)o1`, the TGI in test [1], in test [2], in test [3], in test [4], in test [6] and in [7] was more than 100 µM each time. Further, the TGI in test [8], in [9], in test [11], in test [12], in test [16] and in test [13] was more than 100 µM in each case. The TGI in test [14] was more than 100 µM.
